Experiments:
Prothrombin [1] = target: T1, Prothrombin (Homo sapiens, UniProt P00734); assay: Binding affinity to human thrombin
[2] = target: T2, Cathepsin G (Homo sapiens) (UniProt P08311); assay: Inhibitory activity against human Cathepsin G at 100 uM; Not active
T2 sequence (whole entry): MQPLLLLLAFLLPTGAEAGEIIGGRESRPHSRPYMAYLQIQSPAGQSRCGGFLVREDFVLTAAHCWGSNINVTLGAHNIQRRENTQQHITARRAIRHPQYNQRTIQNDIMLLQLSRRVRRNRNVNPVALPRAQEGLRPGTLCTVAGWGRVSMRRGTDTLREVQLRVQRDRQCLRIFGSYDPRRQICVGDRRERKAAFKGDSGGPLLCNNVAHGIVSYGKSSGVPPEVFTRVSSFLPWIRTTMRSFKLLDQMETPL

Canis familiaris = assay: In vivo antithrombotic activity using canine thrombosis model; assay type: functional; settings: Canis lupus familiaris
[3] = Oral bioavailability; assay type: ADME, organism-based; settings: eutheria, in vivo
Oryctolagus cuniculus = assay: In vivo antithrombotic activity using rabbit thrombosis model; assay type: functional
Prothrombin [4] = target: T1, Prothrombin; assay: Binding activity against human alpha thrombin
Tryptase = Tryptase (Homo sapiens, UniProt Q9BZJ3+Q15661+Q9NRR2); assay: Binding affinity against human alpha tryptase; assay type: protein assay
Cathepsin G = target: T3, Cathepsin G (Homo sapiens, UniProt P08311); assay: Inhibitory activity against human Cathepsin G
T3 sequence (P08311 whole entry): T2 sequence (whole entry)

CN[C@H](Cc1ccccc1)C(=O)N1CCC[C@H]1C(=O)N[C@@H](CCCNC(=N)N)C(=O)c1nc2ccccc2[nH]1
Ki (Prothrombin [1]): 9.6 nM

N=C(N)NCCC[C@@H]1NC(=O)C2CCCN2C(=O)[C@@H](Cc2ccccc2)NC(=O)CCCCCCCNC(=O)C1=O (stereo partly drawn)
Ki (Prothrombin [1]): 24 nM

CN[C@H](Cc1ccccc1)C(=O)N1CCC[C@H]1C(=O)N[C@@H](CCCN=C(N)N)C(=O)c1nc(O)c2ccccc2n1
Ki (Prothrombin [1]): 15 nM

CN[C@H](Cc1ccccc1)C(=O)N1CCC[C@H]1C(=O)N[C@@H](CCCN=C(N)N)C(=O)c1nc2ccccc2o1
Ki (Prothrombin [1]): 6.2 nM

CC(C(=O)c1ccc2ccccc2c1)(c1cccc2ccccc12)P(=O)(O)O (stereo not drawn)
inhibition [2]: < 50%

CN[C@H](Cc1ccccc1)C(=O)N1CCC[C@H]1C(=O)N[C@@H](CCCNC(=N)N)C(=O)c1nc2ccc(C(=O)O)cc2s1
ED50 (Canis familiaris): 0.47 mg/kg | bioavailability [3]: 3% | ED50 (Oryctolagus cuniculus): 0.3 mg/kg

N=C(N)NCCC[C@@H]1NC(=O)C2CCCN2C(=O)[C@@H](NC=O)CNC(=O)/C=C/[C@H](Cc2ccc(O)cc2)NC(=O)[C@@H](Cc2ccccc2)NC(=O)C1=O (stereo partly drawn)
Ki (Prothrombin [1]): 4.1 nM

O=P(O)(O)C(c1cccc2ccccc12)C(O)c1ccc2ccccc2c1 (stereo not drawn)
inhibition [2]: < 50%

O=P(O)(O)C(c1cccc2ccccc12)S(=O)(=O)c1ccc2ccccc2c1 (stereo not drawn)
inhibition [2]: < 50%

CN[C@@H](C(=O)N1CCC[C@H]1C(=O)N[C@@H](CCCN=C(N)N)C(=O)c1nc2ccccc2s1)C(c1ccccc1)c1ccccc1
Ki (Prothrombin [1]): 0.00065 nM | IC50 (Prothrombin [4]): 4.5 nM

N=C(N)NCCC[C@H](NC(=O)C1CCCC1)C(=O)c1nc2ccccc2s1
Ki (Tryptase): 88 nM

CN[C@H](Cc1ccccc1)C(=O)N1CCC[C@H]1C(=O)N[C@@H](CCCN=C(N)N)C(=O)c1nc2ccccc2s1
Ki (Prothrombin [1]): 0.2 nM | bioavailability [3]: 1% | ED50 (Oryctolagus cuniculus): 0.29 mg/kg

O=C(c1ccc2ccccc2c1)C(c1ccc2ccccc2c1)P(=O)(O)O (stereo not drawn)
inhibition [2]: < 50%

O=C(c1ccc2ccccc2c1)C(c1cccc2ccccc12)P(=O)(O)O (stereo not drawn)
IC50 (Cathepsin G): 4100 nM

O=P(O)(O)C(Cc1ccc2ccccc2c1)c1cccc2ccccc12 (stereo not drawn)
inhibition [2]: < 50%

CC(=O)N1C[C@H](O)C[C@H]1C(=O)N[C@@H](CCCN=C(N)N)C(=O)c1nc2ccccc2s1
Ki (Tryptase): 10 nM

N=C(N)NCCC[C@@H]1NC(=O)[C@@H]2CCCN2C(=O)[C@@H](NC=O)NC(=O)CCCCCCNC(=O)C1=O
Ki (Prothrombin [1]): 260 nM

O=C(c1ccc2ccccc2c1)C(c1ccccc1)P(=O)(O)O (stereo not drawn)
inhibition [2]: < 50%

O=C(Cc1ccc2ccccc2c1)C(c1cccc2ccccc12)P(=O)(O)O (stereo not drawn)
inhibition [2]: < 50%

CN(CC(=O)NCC(c1ccccc1)c1ccccc1)C(=O)c1cc2ccccc2cc1C(=O)C(c1cccc2ccccc12)P(=O)(O)O (stereo not drawn)
IC50 (Cathepsin G): 500 nM

CN(CC(=O)NCCc1ccccc1)C(=O)c1cc2ccccc2cc1C(=O)C(c1cccc2ccccc12)P(=O)(O)O (stereo not drawn)
IC50 (Cathepsin G): 1300 nM

CN[C@H](Cc1ccccc1)C(=O)N1CCC[C@H]1C(=O)N[C@@H](CCCN=C(N)N)C(=O)c1nccn1C
Ki (Prothrombin [1]): 200 nM

CN[C@H](Cc1ccccc1)C(=O)N1CCC[C@H]1C(=O)N[C@H](C=O)CCCNC(=N)N
ED50 (Oryctolagus cuniculus): 0.13 mg/kg

O=C(c1cccc2ccccc12)C(c1cccc2ccccc12)P(=O)(O)O (stereo not drawn)
inhibition [2]: < 50%

CN(Cc1ccccc1)C(=O)c1cc2ccccc2cc1C(=O)C(c1cccc2ccccc12)P(=O)(O)O (stereo not drawn)
IC50 (Cathepsin G): 1000 nM

N=C(N)NCCC[C@@H]1NC(=O)C2CCCN2C(=O)[C@@H](NC(=O)Cc2ccccc2)CNC(=O)/C=C/[C@H](Cc2ccc(O)cc2)NC(=O)[C@@H](Cc2ccccc2)NC(=O)C1=O (stereo partly drawn)
Ki (Prothrombin [1]): 3.1 nM

CN[C@H](Cc1ccccc1)C(=O)N1CCC[C@H]1C(=O)N[C@@H](CCCNC(=N)N)C(=O)c1nccs1
Ki (Prothrombin [1]): 2.1 nM

N=C(N)NCCC[C@@H]1NC(=O)C2CCCN2C(=O)[C@@H](NCCc2ccccc2)CNC(=O)/C=C/[C@H](Cc2ccc(O)cc2)NC(=O)[C@@H](Cc2ccccc2)NC(=O)C1=O (stereo partly drawn)
Ki (Prothrombin [1]): 1.5 nM

Source: ChEMBL document CHEMBL1148408, “Inhibitors of serine proteases as potential therapeutic agents: the road from thrombin to tryptase to cathepsin G” (J Med Chem, 2004)
